Reference: patent US4764508A, “Complexes of flavanolignans with phospholipids, preparation thereof and associated pharmaceutical compositions” (Inverni Della Beffa S.p.A., priority 1985, dated 1988)
Blank lines part the entries; values can stand above or below the compound they belong to.

Key:
[1] = in vivo, po
Description: phosphatidylcholine complex in the rat, after oral administration.

[2] = system: liver poisoning with carbon tetrachloride; test: Anti-hepatotoxic activity of silybin and of 1:1 silybin-phosphatidylcholine complex in the rat, after poisoning with carbon tetrachloride; type: in vivo; settings: oral; for reduction in GOT and GPT (in words): carbon tetrachloride, equimolecular doses; for GOT: poisoned controls 339.40 ± 59.07; for GOT, % change (in brackets) / GPT, % change (in brackets): versus poisoned controls
[3] = Solubility in chloroform, ethyl ether or benzene
[4] = Pharmacokinetic comparison between equimolar doses of silybin and of 1:1 silybin-phosphatidylcholine complex in the rat, after oral administration
[5] = conclusion from literature reports; cited from earlier work
[6] = Pharmacokinetic comparison between equimolar doses of silybin and of 1:1 silybin:phosphatidylcholine complex in man, oral administration; settings: 0.00 = below sensitivity of the method (35 ng/ml)
[7] = silybin 25 mg/kg, complex 65.8 mg/kg (equivalent to 25 mg silybin), poisoned controls 145.40 ± 31.43
[8] = silybin 25 mg/kg, complex 65.8 mg/kg (equivalent to 25 mg silybin)
[9] = silybin 25 mg/kg, complex 65.8 mg/kg
[10] = silybin 250 mg/kg (P < .05), complex 658 mg/kg (equivalent to 250 mg silybin; P < .01)
[11] = silybin 250 mg/kg, complex 658 mg/kg (equivalent to 250 mg silybin), poisoned controls 145.40 ± 31.43, °° P < .01
[12] = silybin 250 mg/kg, complex 658 mg/kg

absorption in the rat (in words) [1]: markedly in favour of the complexed form
Compound: 1:1 Silybin/soy phosphatidylcholine complex [1:1 silybin-phosphatidylcholine complex]
reduction in GOT and GPT (in words) [2]: significant reduction
GPT [2, 7]: 65.90 U/L
GOT [2, 8]: 181.80 U/L
GOT, % change (in brackets) [2, 9]: -46.4%
GPT, % change (in brackets) [2, 9]: -54.7%
GOT [2, 10]: 148.10 U/L
GPT [2, 11]: 46.90 U/L
GOT, % change (in brackets) [2, 12]: -56.4%
GPT, % change (in brackets) [2, 12]: -67.8%

Compound: COc1cc(C2Oc3cc([C@H]4Oc5cc(O)cc(O)c5C(=O)[C@@H]4O)ccc3OC2CO)ccc1O (stereo partly drawn) [Silybin, silybin]
solubility in chloroform, ethyl ether or benzene [3]: insoluble
concentration at 0.25 h ([4]; in vivo, po, 200 mg/kg): 70 ng/mL
concentration at 0.5 h ([4]; in vivo, po, 200 mg/kg): 60 ng/mL
concentration at 1 h ([4]; in vivo, po, 200 mg/kg): 110 ng/mL
concentration at 2 h ([4]; in vivo, po, 200 mg/kg): 50 ng/mL
concentration at 3 h ([4]; in vivo, po, 200 mg/kg): 50 ng/mL
concentration at sampling time 4.00 h ([4]; oral, complex 520 mg/kg (equivalent to 200 mg/kg silybin), silybin 200 mg/kg, 4.00 h, 0.00 = nondeterminable, below limit of 0.05 mcg/ml): 0 ng/mL
concentration at sampling time 6.00 h ([4]; oral, complex 520 mg/kg (equivalent to 200 mg/kg silybin), silybin 200 mg/kg, 6.00 h, 0.00 = nondeterminable, below limit of 0.05 mcg/ml): 0 ng/mL
oral bioavailability (in words) [5]: does not have really high or adequate bioavailability
concentration at sampling time 0.25 h ([6]; complex 700, silybin 270, 0.25 h): 0.00 ng/mL
concentration at sampling time 0.50 h ([6]; complex 700, silybin 270, 0.50 h): 0.00 ng/mL
concentration at sampling time 1.00 h ([6]; complex 700, silybin 270, 1.00 h): 0.00 ng/mL
concentration at sampling time 2.00 h ([6]; complex 700, silybin 270, 2.00 h): 0.00 ng/mL
concentration at sampling time 3.00 h ([6]; complex 700, silybin 270, 3.00 h): 0.00 ng/mL
concentration at sampling time 4.00 h ([6]; complex 700, silybin 270, 4.00 h): 0.00 ng/mL
concentration at sampling time 6.00 h ([6]; complex 700, silybin 270, 6.00 h): 0.00 ng/mL
concentration at sampling time 8.00 h ([6]; complex 700, silybin 270, 8.00 h): 0.00 ng/mL
reduction in GOT and GPT (in words) [2]: only a slight reduction
GPT [2, 7]: 94.30 U/L
GOT [2, 8]: 252.60 U/L
GOT, % change (in brackets) [2, 9]: -25.6%
GPT, % change (in brackets) [2, 9]: -35.2%
GOT [2, 10]: 200.00 U/L
GPT [2, 11]: 94.90 U/L
GOT, % change (in brackets) [2, 12]: -41.1%
GPT, % change (in brackets) [2, 12]: -34.8%
